{
  "source": "paper PMC7503219",
  "about": "(International journal of hematology, 2019)",
  "origin": "cited, not measured here",
  "system": "GATA-1low mice",
  "conditions": "GATA-1 mouse model of PMF",
  "data": [
    {"compound": "N#CCCN", "note": "[BAPN, β-aminopropionitrile]", "values": [
      {"measurement": "effect on myelofibrotic phenotype", "value": "reduced the pathogenesis of the myelofibrotic phenotype"}
    ]}
  ]
}
